Source: article PMC9479156 (Frontiers in Pharmacology, 2022)

What was measured:
[1] = tested on: A549 human lung carcinoma; test: MTT cytotoxicity assay A549; assay type: cell-based; conditions: for IC50: Homo sapiens, A549, MTT, 72 h, ± SD, read-out: IC50 A549
Procedure: (§1) Proliferative and non-proliferative mammalian cell lines: human liver and lung cancer cell lines HepG2 and A549, and immortalized normal liver LO2 and lung BEAS-2B cells were purchased from ATCC (Manassas, VA, United States). Cells were cultured in RPMI-1640 medium supplemented with 10% fetal bovine serum and antibiotics penicillin (50 U/mL) and streptomycin (50 μg/ml; Invitrogen, United Kingdom). All cells were incubated at 37°C in a 5% humidified CO2 incubator.
(§2) All test compounds were dissolved in DMSO at a final concentration of 50 mM and stored at −20°C before use. Cytotoxicity was assessed with A549, HepG2, BEAS-2B and LO2 cells. The MTT assay with 3-(4,5-dimethylthiazole-2yl)-2,5-diphenyltetrazolium bromide (5 mg/ml) was performed as previously described ([Ng et al., 2022]). Briefly, 4 × 10^3 cells per well were seeded in 96-well plates before drug treatment. After overnight cell culture, the cells were exposed to different concentrations of selected compounds (0.19–100 μM) for 72 h. Cells without drug treatment were used as control. Next, 10 μl of the MTT solution was added to each well and incubated at 37°C for another 4 h. Solubilization buffer (100 μl) was then added (10 mM HCl in a solution of 10% of SDS) and incubated overnight. The absorbance A at 570 nm was measured on the next day. The percentage of cell viability was calculated using the following formula: Cell viability (%) = Atreated/Acontrol × 100. Dose response curves for all assays are given in the Supplementary Figures S3–S6.
(§3) Cytotoxicity was assessed for each of artemisinin, DHA and artemether, and the amino-artemisinins artemiside and artemisone, and celastrol against A549 human lung carcinoma, BEAS-2B non-tumorigenic human bronchial epithelium, HepG2 liver hepatocellular carcinoma and LO2 human normal hepatocytes using the MTT assay ([Ng et al., 2022]). Data are presented in Table 4, and dose response curves are given in the Supplementary Figures S3–S6.

[2] = tested on: BEAS-2B non-tumorigenic human bronchial epithelium; test: MTT cytotoxicity assay BEAS-2B; assay type: cell-based; conditions: MTT, 72 h, ± SD, read-out: IC50 BEAS-2B
Procedure: as §1, §2, §3

[3] = tested on: HepG2 liver hepatocellular carcinoma; test: MTT cytotoxicity assay HepG2; assay type: cell-based, human; conditions: for IC50: Homo sapiens, HepG2, MTT, 72 h, ± SD, read-out: IC50 HepG2; for SI, selectivity index IC50 normal cell line/IC50 tumour cell line: LO2/HepG2
Procedure: as §1, §2, §3

[4] = tested on: LO2 human normal hepatocytes; test: MTT cytotoxicity assay LO2; assay type: cell-based; conditions: Hepatocyte, MTT, 72 h, ± SD, read-out: IC50 LO2
Procedure: as §1, §2, §3

[5] = tested on: asexual blood stage P. falciparum NF54 (drug sensitive); set-up: method as in Coertzen et al., 2018; Wong et al., 2019; conditions: SYBR Green I, mean ± SEM, ref Coertzen et al., 2018, Wong et al., 2019; cited from earlier work
[6] = tested on: asexual blood stage P. falciparum K1 (multidrug resistant); conditions: ref Coertzen et al., 2018, Wong et al., 2019, cited from earlier work; for IC50: asexual blood stage, SYBR Green I, mean ± SEM
[7] = tested on: asexual blood stage P. falciparum W2 (multidrug resistant); set-up: method as in Coertzen et al., 2018; Wong et al., 2019; conditions: ref Coertzen et al., 2018, Wong et al., 2019, cited from earlier work; for IC50: asexual blood stage, SYBR Green I, mean ± SEM
[8] = tested on: immature stage II-III P. falciparum NF54 gametocytes; set-up: method as in Coertzen et al., 2018, Wong et al., 2019; conditions: ref Coertzen et al., 2018, Wong et al., 2019, cited from earlier work; for IC50: NF54 gametocytes, luciferase, 48 h, mean ± SEM, read-out: Immature stage II-III (luc 48 h) IC50; for Fold change preference ratio EG to LG: immature vs late stage gametocytes
[9] = tested on: late stage IV-V P. falciparum NF54 gametocytes; set-up: method as in Coertzen et al., 2018, Wong et al., 2019; conditions: ref Coertzen et al., 2018, Wong et al., 2019, cited from earlier work; for IC50: NF54 gametocytes, luciferase, 72 h, mean ± SEM, read-out: Late stage IV-V (luc 72 h) IC50; for Fold change preference ratio LG to EG: late vs immature stage gametocytes
[10] = tested on: HepG2 liver hepatocellular carcinoma; test: Cytotoxicity drug combination (isobole) assay HepG2; assay type: cell-based, human
Procedure: (§4) For the drug combination inhibitory assays, six drug preparations, of which four comprised combinations of either artemiside or artemisone with celastrol in a fixed ratio of 80:20, 60:40, 40:60, and 20:80 were prepared and screened against HepG2 liver hepatocellular carcinoma and LO2 human normal hepatocytes respectively. Two of these six preparations employed each of artemiside, artemisone or celastrol alone at a concentration approximately 5–7 times higher than the IC50 of the individual drug as presented in Table 4. […] Thus, six combinations for artemiside (µM) and celastrol (µM) prepared were 500:0, 400:4, 300:8, 200:12, 100:16, and 0:20, respectively.
(§5) As above for the malaria combination assays, a mean ΣFIC<1.0 represents a synergistic interaction, >1.3 represents an antagonistic interaction and ΣFIC = 1 represents an indifferent or additive interaction. Additivity, synergism and antagonism were also be established from the linear plots constructed from the FIC values of each of the drugs. A concave hyperbolic plot indicates synergism, a convex hyperbolic plot indicates an antagonistic interaction, and a straight line indicates an additive interaction. Isobole analysis of the combinations of each of artemiside and artemisone in combination with celastrol was performed against HepG2 and LO2 cells respectively. In Figure 5 is presented the isoboles for each drug combination.
(§6) Next, combinations of each of artemiside and artemisone with celastrol were examined, according to the method used to establish additivity/synergism described above. […] Against the normal hepatocyte LO2 cell line, whilst the interaction of artemisone with celastrol was synergistic, that of artemiside was additive. Synergism and additivity were also evident from the linear plots determined from the FIC values of each of the drugs (Table 5 and Figure 6). Thus, synergism is confirmed for combinations of the amino-artemisinins with celastrol against the HepG2 carcinoma cell line, and for artemisone-celastrol against human normal hepatocyte LO2.

[11] = tested on: LO2 human normal hepatocytes; test: Cytotoxicity drug combination (isobole) assay LO2; assay type: cell-based
Procedure: as §4, §5, §6

SMILES | IC50 [1] | IC50 [2] | IC50 [3] | SI, selectivity index IC50 normal cell line/IC50 tumour cell line [3] | IC50 [4] | IC50 [5] | IC50 [6] | RI (resistance index) = IC50 K1/IC50 NF54 [6] | IC50 [7] | RI = IC50 W2/IC50 NF54 [7] | IC50 [8] | Fold change preference ratio EG to LG [8] | IC50 [9] | Fold change preference ratio LG to EG [9] | other results
CO[C@H]1O[C@@H]2O[C@@]3(C)CC[C@H]4[C@H](C)CC[C@@H]([C@H]1C)[C@@]24OO3 [Artemether, artemether] | > 100000 nM | > 100000 nM | 1020 ± 200 nM | >98 | > 100000 nM | 1.86 ± 0.17 nM | 9 ± 2 nM | 4.8 | 7 ± 1 nM | 3.8 | 37.7 ± 2 nM | 3.6 | 136 ± 85.9 nM | 0.28 | –
C[C@H]1[C@H](N2CCSCC2)O[C@@H]2O[C@@]3(C)CC[C@H]4[C@H](C)CC[C@@H]1[C@@]24OO3 [Artemiside, artemiside] | > 100000 nM | 32100 ± 2700 nM | 550 ± 20 nM | >183 | > 100000 nM | 1.11 ± 0.17 nM | 1.6 ± 0.4 nM | 1.47 | 1.75 ± 0.27 nM | 1.58 | 16.4 ± 1 nM | 0.09 | 1.5 ± 0.5 nM | 10.9 | SI, selectivity index IC50 normal cell line/IC50 tumour cell line ([1]; BEAS-2B/A549): <0.3; SI, selectivity index IC50 normal cell line/IC50 tumour cell line ([3]; listed as artemiside): > 170; FIC ([10]; artemiside:celastrol drug ratio 20:80, HepG2): 0.16; FIC ([10]; artemiside:celastrol drug ratio 40:60, HepG2): 0.42; FIC ([10]; artemiside:celastrol drug ratio 60:40, HepG2): 0.4; FIC ([10]; artemiside:celastrol drug ratio 80:20, HepG2): 0.57; FIC ([11]; artemiside:celastrol drug ratio 20:80, LO2): 0.09; FIC ([11]; artemiside:celastrol drug ratio 40:60, LO2): 0.33; FIC ([11]; artemiside:celastrol drug ratio 60:40, LO2): 0.45; FIC ([11]; artemiside:celastrol drug ratio 80:20, LO2): 0.59
C[C@@H]1CC[C@H]2[C@@H](C)C(=O)O[C@@H]3O[C@@]4(C)CC[C@@H]1[C@]32OO4 [Artemisinin, artemisinin, reference compound] | > 100000 nM | > 100000 nM | > 100000 nM | – | > 100000 nM | – | – | – | – | – | – | – | – | – | –
C[C@H]1[C@H](OC(=O)CCC(=O)O)O[C@@H]2O[C@@]3(C)CC[C@H]4[C@H](C)CC[C@@H]1[C@@]24OO3 [Artesunate, artesunate] | – | – | – | – | – | 3 ± 0.29 nM | 4 ± 1 nM | – | 2.4 ± 0.4 nM | – | 62.8 ± 3 nM | – | 259 ± 80 nM | – | –
C[C@@H]1CC[C@H]2[C@@H](C)C(O)O[C@@H]3O[C@@]4(C)CC[C@@H]1[C@]32OO4 (stereo partly drawn) [DHA] | 62600 ± 3400 nM | 21200 ± 1400 nM | > 100000 nM | – | 30700 ± 2200 nM | 2.51 ± 0.19 nM | 1.51 ± 0.33 nM | 0.6 | 1.74 ± 0.22 nM | 0.7 | 43 ± 3.9 nM | 0.78 | 33.7 ± 1.98 nM | 1.3 | –
